These results are taken from patent US5587479A, “Basic derivatives of glutamic acid and aspartic acid as gastrin or cholecystokinin antagonists” (priority 1992, dated 1996).

Test [1] deals with T1, central CCK-B receptors (guinea pig cortical membrane) (Cavia porcellus, UniProt H0VZC5).
T1 construct: Cerebral cortices of white male guinea pigs were therefore used; from tissue; host or cells: guinea pig cerebral cortex membranes
T1 sequence (H0VZC5 1-426): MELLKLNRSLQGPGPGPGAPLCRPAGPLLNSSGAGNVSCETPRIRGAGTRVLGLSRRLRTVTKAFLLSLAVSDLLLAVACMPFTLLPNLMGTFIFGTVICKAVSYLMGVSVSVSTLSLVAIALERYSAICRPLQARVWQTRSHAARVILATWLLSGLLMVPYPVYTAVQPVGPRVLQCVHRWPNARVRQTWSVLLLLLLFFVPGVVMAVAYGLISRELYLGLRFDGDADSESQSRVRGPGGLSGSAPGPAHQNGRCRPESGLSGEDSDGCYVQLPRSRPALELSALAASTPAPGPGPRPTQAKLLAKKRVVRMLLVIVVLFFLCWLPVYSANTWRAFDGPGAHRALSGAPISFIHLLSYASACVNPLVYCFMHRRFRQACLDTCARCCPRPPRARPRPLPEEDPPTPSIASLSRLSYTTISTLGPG
Kind of test: Inhibition of binding of (3-H)[N-methyl-N-leucine]CCK-8 to guinea pig cortical membranes (anti-CCK-B). Here is the method: Cerebral cortices of white male guinea pigs were therefore used, according to the method mentioned above, so as to obtain a membrane content/ml corresponding to about 300 mcg of proteins/mi. The membranes were incubated together with the radioactive tracer and the compounds under test for 150 minutes at 25° C. After the supernatant liquid had been discarded, the radioactivity associated with the pellet was determined with a liquid scintillator.

Test [2] relates to acid secretion induced by pentagastrin. As to the kind of experiment: Activity against gastric secretion stimulated with pentagastrin in the anaesthetized rat. The format is in vivo. Conditions: for ED50: iv, anaesthetized rat, pentagastrin 30 mcg/kg/h, I.V. bolus, read-out: Antagonistic activity (ID50) towards acid secretion induced by pentagastrin. As for the experimental part: The investigation of the activity against gastric secretion performed by the compounds of the invention by means of an antigastrin mechanism was carried out in vivo in anaesthetized rats with the use of male animals weighing about 200 g. Gastric secretion was stimulated with pentagastrin and the method of K. S. Lai [Gut 5, (1964), 327-341] was used, slightly modified.
After tracheotomy, the oesophagus and duodenum were cannulated. Perfusion was carried out with a tepid solution (37° C.) of 0.25 mM NaOH which was passed through the stomach by means of a peristaltic pump at a constant flow rate of 1 ml/minute. After stabilization for 20 minutes, the stimulant, dissolved in a physiological solution, was perfused for 120 minutes at a dose of 30 mcg/kg/h in a volume of 0.95 ml/hour. After perfusion for 60 minutes (the basal simulation), the product under test was administered intravenously (I.V.) as a bolus and the perfusion of the stimulant was continued for a further 60 minutes. The acid secretion was recorded continuously as a function of time.
The activity of the product was evaluated as the percentage reduction in the secreted acidity after the administration of the product compared with the basal acidity measured during the first 60 minutes of collection in the presence of pentagastrin alone.

For the next test, the system named is guinea-pig ureters. Kind of test: Antispastic activity in vitro: spontaneous motility of guinea-pig ureters. Conditions: for IC50: Cavia porcellus, five minutes contact, 37° C. The source says: The isotonic contractions were detected by means of a force transducer and recorded. […] A given concentration of the product under test was then introduced into the bath and left in contact with the prepared specimen for five minutes, after which the ureter was washed until its own spontaneous activity was re-established.

Another test relates to mouse. As to the kind of experiment: Anxiolytic activity in the mouse, Black and White Box test. Particulars: for TOTAL MOV.: five minutes. The format is in vivo. Here is the method: In order to confirm the hypothesis that the potent activity of some of the compounds of the invention against central CCK-B may be correlated with a possible anxiolytic activity, this potential activity was evaluated in the mouse with the use of the "Black and White Box test". This experimental model, which was carried out according to Costall et al. [Pharm. Biochem. Behav. 32 (1989), 777-785] used a box with dimensions of 45×21×21 (h) cm. divided into two compartments which communicated with each other by means of a 13×5 cm hole. The smaller compartment (1/3 of the total area) had black walls, whereas the larger had transparent walls and was illuminated by a lamp which was placed 20 cm above the box and supplied light at 20 W. Under the floor was an activity meter which registered the movements performed by the animal in the individual compartments. The experiment was started by placing the animal in the centre of the illuminated box; as well at its movements, the time which the animal spent in the dark and in the light and the number of times it moved between the 2 compartments were recorded for five minutes. In general, a control animal tended preferably to stay in the dark compartment where it felt better protected from an unusual enviromental situation which put it in a state of anxiety. In this experimental model ( see the reference cited above), a compound having anxiolytic activity decreased the % of movements into the dark in comparison with the total movements, increased the movements between the two light-dark compartments, and increased the % of the total time time spent in the light. The results obtained are given in Table 5 below in which the activities obtained with the compound 1 (the rectus series ) and its enantiomer 2 (sinister) tested in comparison with diazepam and the CCK-B antagonist L365-260.

Test [3] addresses T2, cholecystokinin receptors of the pancreatic cells of the rat (CCK-A) (Rattus norvegicus, UniProt P30551).
T2 construct: The pancreatic cells of the rat were prepared as described by Makovec et al; from tissue; host or cells: rat pancreatic cells
T2 sequence (P30551 1-444): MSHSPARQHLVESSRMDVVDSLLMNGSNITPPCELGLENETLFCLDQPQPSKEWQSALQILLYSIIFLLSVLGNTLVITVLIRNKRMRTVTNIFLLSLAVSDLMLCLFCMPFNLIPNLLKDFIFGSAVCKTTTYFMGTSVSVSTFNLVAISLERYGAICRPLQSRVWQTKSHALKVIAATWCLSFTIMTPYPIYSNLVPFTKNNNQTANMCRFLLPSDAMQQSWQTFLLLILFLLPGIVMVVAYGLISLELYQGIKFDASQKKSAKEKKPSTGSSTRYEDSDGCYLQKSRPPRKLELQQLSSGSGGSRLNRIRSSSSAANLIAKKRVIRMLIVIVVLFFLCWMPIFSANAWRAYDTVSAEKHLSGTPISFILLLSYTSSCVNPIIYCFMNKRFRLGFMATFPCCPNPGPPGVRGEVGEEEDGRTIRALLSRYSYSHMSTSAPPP
Kind of test: Inhibition of the binding of [125-I]-[Bolton-Hunter]-CCK-8 to rat pancreatic cells (anti-CCK-A). Particulars: for IC50: 30 minutes at 37° C., read-out: IC50, inhibition of the binding of (125-I)(B-H)-CCK-8 to the pancreatic cells of the rat. Here is the method:
The pancreatic cells of the rat were prepared as described by Makovec et al. (reference cited) so as to produce about 5×10^6 cells/mi. The cells were then incubated together with the radioactive tracer and the compounds under test for 30 minutes at 37° C.
After the supernatant liquid had been discarded, the radioactivity associated with the pellet was determined with a gamma counter (80% efficiency).

Setting [4] is: IC50, inhibition of binding of (3-H)[N-methyl-N-leucine]CCK-8 to the guinea pig cortical membrane, 150 minutes at 25° C.
Setting [5] is: force of the contractions, read-out: IC50 (force), inhibition of the spontaneous motility of guinea-pig ureters in vitro.
The mark [6] stands for this setting: frequency of the contractions, read-out: IC50 (frequency), inhibition of the spontaneous motility of guinea-pig ureters in vitro.

Converted amounts (≈) assume the structure as drawn. Where two headings read alike, the source gives them in different places.

Regarding `O=C(O)CC[C@@H](NC(=O)c1cc(Cl)cc(Cl)c1)C(=O)N1CCC2(CCCC2)CC1` [CR 2194, reference compound], the IC50 in test [1] (setting [4]) worked out at 2400 nM. In addition, the ED50 in test [2] came out at 11 mg/kg.
On to `CN1CCN(C(=O)CC[C@H](NC(=O)c2cc(Cl)cc(Cl)c2)C(=O)N2CCC3(CCCC3)CC2)CC1` [Compound 2], for which the IC50 in the test with guinea-pig ureters (setting [5]) came to 25 µg/mL (≈ 47.8 µM). For the same molecule, the IC50 in the test with guinea-pig ureters (setting [6]) came out at 20 µg/mL (≈ 38.2 µM). In test [1] (setting [4]), the half-inhibitory concentration (IC50) was over 100000 nM. Further, in test [1] (read-out: IC50, binding to guinea-pig cortical membranes), the IC50 is over 1000 nM. Further, the ED50 in test [2] turned out to be 24.8 mg/kg. Besides, in the test on mouse (0.1 mg/kg IP), the “LIGHT TIME (%) TOTAL TIME” value is listed as 28.3%, the “LIGHT TIME (%) TOTAL TIME: % EFF.VS CONTROL” value worked out at 0%, the “LIGHT-DARK MOVEMENTS” value worked out at 13.2 and the “LIGHT-DARK MOVEMENTS: % EFF. VS CONTROL” value is 0%. Besides, in the test on mouse (0.1 mg/kg IP), the “MOV. DARK (%) TOTAL MOV.” value is reported as 50%, the “MOV. DARK (%) TOTAL MOV.: % EFF. VS CONTROL” value is listed as -4% and the “TOTAL MOV.” value turned out to be 477. In addition, in the test on mouse (1 mg/kg IP), the “LIGHT TIME (%) TOTAL TIME” value was determined as 27.5%, the “LIGHT TIME (%) TOTAL TIME: % EFF.VS CONTROL” value turned out to be 0%, the “LIGHT-DARK MOVEMENTS” value was found to be 12.8 and the “LIGHT-DARK MOVEMENTS: % EFF. VS CONTROL” value is reported as 0%. In addition, in the test on mouse (1 mg/kg IP), the “MOV. DARK (%) TOTAL MOV.” value is on record as 50%, the “MOV. DARK (%) TOTAL MOV.: % EFF. VS CONTROL” value is on record as -4% and the “TOTAL MOV.” value came out at 462. Besides, the “anxiolytic activity in the Black and White Box test (in words)” value in the test on mouse (IP) is “completely inactive”.
As to `O=C(CC[C@@H](NC(=O)c1cc(Cl)cc(Cl)c1)C(=O)N1CCC2(CCCC2)CC1)NCCN1CCOCC1` [Compound 3], the “activity on guinea-pig ureters (in words)” value with guinea-pig ureters is given as “extremely active”. In addition, the IC50 with guinea-pig ureters (setting [5]) is 4.5 µg/mL (≈ 8.13 µM); in the test on guinea-pig ureters (setting [6]), 4.3 µg/mL (≈ 7.77 µM); in test [1] (setting [4]), 2800 nM. In test [2], the ED50 was 12.8 mg/kg.
With `CN1CCN(C(=O)CC[C@@H](NC(=O)c2cc(Cl)cc(Cl)c2)C(=O)N2CCC3(CCCCC3)CC2)CC1` [Compound 13], the ED50 in test [2] turned out to be 8.5 mg/kg.
In turn, `CN1CCN(C(=O)CC[C@@H](NC(=O)c2cccc(Cl)c2)C(=O)NCCC(C)(C)C)CC1` [Compound 23] came in with an IC50 in test [1] (setting [4]) of over 100000 nM. The ED50 in test [2] stood at 25 mg/kg.
As to `CCCCCN(CCCCC)C(=O)C(CCC(=O)NCCN1CCOCC1)NC(=O)c1ccc(C(C)C)cc1` (stereo not drawn) [Compound 36], in the test on guinea-pig ureters, the “activity on guinea-pig ureters (in words)” value is listed as “extremely active”. The concentration for half-maximal inhibition (IC50) in the test on guinea-pig ureters (setting [5]) stood at 2 µg/mL (≈ 3.67 µM); with guinea-pig ureters (setting [6]), 1.5 µg/mL (≈ 2.75 µM); in test [1] (setting [4]), 81300 nM.
As for `CCCCCN(CCCCC)C(=O)C(CCC(=O)NCCN1CCCCC1)NC(=O)c1ccc(C)c(C)c1` (stereo not drawn) [Compound 55], the IC50 with guinea-pig ureters (setting [5]) is 11 µg/mL (≈ 20.8 µM); in the test with guinea-pig ureters (setting [6]) it was 18 µg/mL (≈ 34 µM); in test [1] (setting [4]), over 100000 nM.
Turning to `CCCCCN(CCCCC)C(=O)[C@@H](CCC(=O)NCCN1CCOCC1)NC(=O)c1cnc2ccccc2c1` [Compound 59], the IC50 in test [3] worked out at 1200 nM.
As to `CCCCCN(CCCCC)C(=O)[C@@H](CCC(=O)NCCN1CCOCC1)NC(=O)c1ccc2ccccc2c1` [Compound 61], the IC50 in the test on guinea-pig ureters (setting [5]) stood at 32 µg/mL (≈ 57.9 µM); in the test with guinea-pig ureters (setting [6]), 100 µg/mL (≈ 181 µM); in test [1] (setting [4]), 2900 nM; in test [3], 2800 nM.
`CCC(C)(CC)CCNC(=O)C(CC(=O)NCCN1CCOCC1)NC(=O)c1cccc(Cl)c1` (stereo not drawn) [Compound 68]: the ED50 in test [2] came out at 31 mg/kg.
On the same count and under the same terms, next, `CN1CCN(C(=O)C[C@@H](NC(=O)c2cc(Cl)cc(Cl)c2)C(=O)N2CCC3(CCCC3)CC2)CC1` [Compound 70]: 18.9 mg/kg.
Consider `CCCCCN(CCCCC)C(=O)[C@@H](CCC(=O)O)NC(=O)c1ccc(Cl)c(Cl)c1` [R-lorglumide, reference compound], for which the IC50 in test [1] (setting [4]) came out at 9200 nM. In addition, the “times more active than the compound 59 (CCK-A binding)” value in test [3] (rat pancreatic cells) is “about 25 times”.
As for `CCCCCN(CCCCC)C(=O)C(CCC(=O)O)NC(=O)c1ccc(Cl)c(Cl)c1` (stereo not drawn) [lorglumide, reference compound], in test [2] (rat, up to a dose of 100 mg/kg), the “antigastrin activity (in words)” value was “completely inactive”.
On to `CCCN(CCC)C(=O)C(CCC(=O)O)NC(=O)c1ccccc1` (stereo not drawn) [proglumide, reference compound], for which the ED50 in test [2] is 500 mg/kg.

Usually IC50 stands for the point on the concentration scale where inhibition reaches its midpoint.
